Here are results for 27 compounds from patent US11673901B2, “Polycyclic compounds as allosteric SHP2 inhibitors” (Revolution Medicines, Inc., priority 2017, dated 2023).

Molecules are shown by their SMILES.

Chain of SHP2 (Q06124 whole entry): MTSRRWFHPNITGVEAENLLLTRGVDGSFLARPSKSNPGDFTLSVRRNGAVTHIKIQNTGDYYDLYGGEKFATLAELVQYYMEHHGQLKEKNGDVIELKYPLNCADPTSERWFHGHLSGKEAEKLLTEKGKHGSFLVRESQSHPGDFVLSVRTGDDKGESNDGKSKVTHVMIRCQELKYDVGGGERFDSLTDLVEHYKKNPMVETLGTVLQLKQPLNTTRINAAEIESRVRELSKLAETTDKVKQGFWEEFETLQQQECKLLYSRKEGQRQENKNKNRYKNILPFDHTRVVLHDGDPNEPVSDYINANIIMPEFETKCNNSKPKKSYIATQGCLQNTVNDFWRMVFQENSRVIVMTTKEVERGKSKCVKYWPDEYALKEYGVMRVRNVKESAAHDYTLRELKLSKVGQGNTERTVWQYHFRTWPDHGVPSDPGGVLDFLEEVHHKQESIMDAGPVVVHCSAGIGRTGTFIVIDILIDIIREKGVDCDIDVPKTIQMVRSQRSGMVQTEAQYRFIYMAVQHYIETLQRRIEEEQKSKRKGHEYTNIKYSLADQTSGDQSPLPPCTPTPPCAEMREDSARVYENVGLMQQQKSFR

The first assay addresses SHP2 (Homo sapiens (Human), UniProt Q06124). The assay can be described thus: SHP2 allosteric inhibition assay (DiFMUP prompt fluorescence). Format: biochemical. The note with it: 0.2 nM SHP2 activated with 0.5 μM Activating Peptide 1 or 2; substrate DiFMUP; Table 1. The text has this:
Without wishing to be bound by theory, SHP2 is allosterically activated through binding of bis-tyrosyl-phosphorylated peptides to its Src Homology 2 (SH2) domains. The latter activation step leads to the release of the auto-inhibitory interface of SHP2, which in turn renders the SHP2 protein tyrosine phosphatase (PTP) active and available for substrate recognition and reaction catalysis. The catalytic activity of SHP2 was monitored using the surrogate substrate DiFMUP in a prompt fluorescence assay format.
The phosphatase reactions were performed at room temperature in 96-well black polystyrene plate, flat bottom, non-binding surface (Corning, Cat #3650) using a final reaction volume of 100 μL and the following assay buffer conditions: 50 mM HEPES, pH 7.2, 100 mM NaCl, 0.5 mM EDTA, 0.05% P-20, 1 mM DTT.
The inhibition of SHP2 by compounds of the invention (concentrations varying from 0.00005-10 μM) was monitored using an assay in which 0.2 nM of SHP2 was incubated with 0.5 μM of Activating Peptide 1 (sequence: H2N-LN(pY)IDLDLV(dPEG8)LST(pY)ASINFQK-amide) or Activating Peptide 2 (sequence: H2N-LN(pY)AQLWHA(dPEG8)LTI(pY)ATIRRF-amide). After 30-60-minutes incubation at 25° C., the surrogate substrate DiFMUP (Invitrogen, Cat #D6567) was added to the reaction and activity was determined by a kinetic read using a microplate reader (Envision, Perkin-Elmer or Spectramax M5, Molecular Devices). The excitation and emission wavelengths were 340 nm and 450 nm, respectively. Initial rates were determined from a linear fit of the data, and the inhibitor dose response curves were analyzed using normalized IC50 regression curve fitting with control based normalization.
Turning to `C[C@@H]1OCC2(CCN(c3ncc(Sc4ccnc(N)c4Cl)c4nccn34)CC2)[C@@H]1N` [Compound 1 (Example 1)], it took 1 nM to reach half-maximal inhibition (IC50). Turning to `C[C@@H]1OCC2(CCN(c3ncc(Sc4ccnc(N)c4Cl)c4ncnn34)CC2)[C@@H]1N` [Compound 4 (Example 4)], the IC50 (commonly the midpoint of a concentration-inhibition curve) was found to be 29 nM.

Consider `CC1(N)CCN(c2ncc(Sc3ccnc(N)c3Cl)c3nccn23)CC1` [Compound 2 (Example 2)], for which the IC50 was found to be 120 nM. The same measure, in the same setting: as for `Cc1nc(N2CCC3(CC2)CO[C@@H](C)[C@H]3N)n2cnnc2c1-c1cccc(Cl)c1Cl` [Compound 6 (Example 6)], the figure is 10 nM.

Still in this assay, the particulars now being: 0.2 nM SHP2 activated with 0.5 μM Activating Peptide 1 or 2; substrate DiFMUP; Table 2, class symbols.
Regarding `C[C@@H]1OCC2(CCN(c3ncc(Sc4ccnc(N)c4Cl)c4ncnn34)CC2)[C@@H]1N` [Compound 4, (3S,4S)-8-{8-[(2-amino-3-chloropyridin-4-yl)sulfanyl]-[1,2,4]triazolo[1,5-c]pyrimidin-5-yl}-3-methyl-2-oxa-8-azaspiro[4.5]decan-4-amine], the IC50 is at most 50 nM.

Compound `NC[C@H]1CCN(c2ncc(Sc3ccnc(N)c3Cl)c3nccn23)C1` [Compound 24, 4-({5-[(3R)-3-(aminomethyl)pyrrolidin-1-yl]imidazo[1,2-c]pyrimidin-8-yl}sulfanyl)-3-chloropyridin-2-amine] registered an IC50 of 50 to 500 nM. Same read-out and setting: to `Cc1nc(N2CCC3(CC2)CO[C@@H](C)[C@H]3N)n2ccnc2c1-c1ccc2c(c1Cl)OCC2` [Compound 44, (3S,4S)-8-[8-(7-chloro-2,3-dihydro-1-benzofuran-6-yl)-7-methylimidazo[1,2-c]pyrimidin-5-yl]-3-methyl-2-oxa-8-azaspiro[4.5]decan-4-amine] belongs at most 50 nM; to `COc1cccc(-c2c(C)nc(N3CCC4(CC3)CO[C@@H](C)[C@H]4N)n3ccnc23)c1Cl` [Compound 9, (3S,4S)-8-[8-(2-chloro-3-methoxyphenyl)-7-methylimidazo[1,2-c]pyrimidin-5-yl]-3-methyl-2-oxa-8-azaspiro[4.5]decan-4-amine], at most 50 nM; to `C[C@@H]1OCC2(CCN(c3ncc(Sc4cccc(C(=O)N(C)C)c4Cl)c4nccn34)CC2)[C@@H]1N` [Compound 14, 3-({5-[(3S,4S)-4-amino-3-methyl-2-oxa-8-azaspiro[4.5]decan-8-yl]imidazo[1,2-c]pyrimidin-8-yl}sulfanyl)-2-chloro-N,N-dimethylbenzamide], 50 to 500 nM. On the same count and under the same terms, as for `CC1(N)CCN(c2ncc(-c3cccc(Cl)c3Cl)c3nccn23)CC1` [Compound 3, 1-[8-(2,3-dichlorophenyl)imidazo[1,2-c]pyrimidin-5-yl]-4-methylpiperidin-4-amine], the figure is above 500 nM. Same read-out and setting: as for `C[C@@H]1OCC2(CCN(c3ncc(Sc4ccnc5[nH]ccc45)c4nccn34)CC2)[C@@H]1N` [Compound 15, (3S,4S)-3-methyl-8-(8-{1H-pyrrolo[2,3-b]pyridin-4-ylsulfanyl}imidazo[1,2-c]pyrimidin-5-yl)-2-oxa-8-azaspiro[4.5]decan-4-amine], the figure is at most 50 nM; as for `C[C@@H]1OCC2(CCN(c3ncc(Sc4cccc(Cl)c4Cl)c4nccn34)CC2)[C@@H]1N` [Compound 11, (3S,4S)-8-{8-[(2,3-dichlorophenyl)sulfanyl]imidazo[1,2-c]pyrimidin-5-yl}-3-methyl-2-oxa-8-azaspiro[4.5]decan-4-amine], at most 50 nM. In the case of `Nc1nccc(Sc2cnc(N3CCNCC3)n3ccnc23)c1Cl` [Compound 27, 3-chloro-4-{[5-(piperazin-1-yl)imidazo[1,2-c]pyrimidin-8-yl]sulfanyl}pyridin-2-amine], the IC50 was above 500 nM.

In turn, `Cc1nc(N2CCC3(CC2)CO[C@@H](C)[C@H]3N)n2ccnc2c1-c1ccc2cn[nH]c2c1` [Compound 30, (3S,4S)-8-[8-(2H-indazol-6-yl)-7-methylimidazo[1,2-c]pyrimidin-5-yl]-3-methyl-2-oxa-8-azaspiro[4.5]decan-4-amine] gave an IC50 of at most 50 nM. Regarding `Nc1nccc(Sc2cnc(N3CC[C@@H](O)C3)n3ccnc23)c1Cl` [Compound 77], the IC50 is above 500 nM. On the same count and under the same terms, as for `Cc1nc(N2CCC3(CC2)CO[C@@H](C)[C@H]3N)n2ccnc2c1-c1cc2[nH]ncc2cc1Cl` [Compound 38, (3S,4S)-8-[8-(5-chloro-2H-indazol-6-yl)-7-methylimidazo[1,2-c]pyrimidin-5-yl]-3-methyl-2-oxa-8-azaspiro[4.5]decan-4-amine], the figure is at most 50 nM. Same read-out and setting: to `Cc1nc(N2CCC3(CC2)CO[C@@H](C)[C@H]3N)n2ccnc2c1-c1cc2ccccc2n1C` [Compound 40, (3S,4S)-3-methyl-8-[7-methyl-8-(1-methyl-1H-indol-2-yl)imidazo[1,2-c]pyrimidin-5-yl]-2-oxa-8-azaspiro[4.5]decan-4-amine] belongs at most 50 nM; to `Cc1nc(N2CCC3(CC2)CO[C@@H](C)[C@H]3N)n2ccnc2c1-c1cc(Cl)c2cn[nH]c2c1` [Compound 37, (3S,4S)-8-[8-(4-chloro-2H-indazol-6-yl)-7-methylimidazo[1,2-c]pyrimidin-5-yl]-3-methyl-2-oxa-8-azaspiro[4.5]decan-4-amine], at most 50 nM. For the compound `Nc1nccc(Sc2cnc(N3CC[C@H](N)C3)n3ccnc23)c1Cl` [Compound 21, 4-({5-[(3S)-3-aminopyrrolidin-1-yl]imidazo[1,2-c]pyrimidin-8-yl}sulfanyl)-3-chloropyridin-2-amine], the IC50 is above 500 nM. Still for that read-out and setting: as for `Cc1nc(N2CCC3(CC2)CO[C@@H](C)[C@H]3N)n2ccnc2c1-c1cccc(Cl)c1Cl` [Compound 8, (3S,4S)-8-[8-(2,3-dichlorophenyl)-7-methylimidazo[1,2-c]pyrimidin-5-yl]-3-methyl-2-oxa-8-azaspiro[4.5]decan-4-amine], the figure is at most 50 nM; as for `Nc1nccc(Sc2cnc(N3CC(O)C3)n3ccnc23)c1Cl` [Compound 75], above 500 nM. The same measure, in the same setting: as for `Cc1nc(N2CCC3(CC2)CC(N2CC(C#N)C2)C[C@H]3N)n2ccnc2c1-c1cccc(Cl)c1Cl` (stereo partly drawn) [Compound 62, 1-[(4R)-4-amino-8-[8-(2,3-dichlorophenyl)-7-methylimidazo[1,2-c]pyrimidin-5-yl]-8-azaspiro[4.5]decan-2-yl]azetidine-3-carbonitrile], the figure is at most 50 nM; as for `Cc1nc(N2CCC3(CC2)CO[C@@H](C)[C@H]3N)n2ccnc2c1Sc1ccnc(N)c1Cl` [Compound 29, (3S,4S)-8-{8-[(2-amino-3-chloropyridin-4-yl)sulfanyl]-7-methylimidazo[1,2-c]pyrimidin-5-yl}-3-methyl-2-oxa-8-azaspiro[4.5]decan-4-amine], at most 50 nM. Same read-out and setting: as for `C[C@@H]1OCC2(CCN(c3ncc(Sc4ccnc(N)c4Cl)c4nccn34)CC2)[C@@H]1N` [Compound 1, (3S,4S)-8-{8-[(2-amino-3-chloropyridin-4-yl)sulfanyl]imidazo[1,2-c]pyrimidin-5-yl}-3-methyl-2-oxa-8-azaspiro[4.5]decan-4-amine], the figure is at most 50 nM. `COc1cccc(-c2cnc(N3CCC4(CC3)CO[C@@H](C)[C@H]4N)n3ccnc23)c1Cl` [Compound 57, (3S,4S)-8-[8-(2-chloro-3-methoxyphenyl)imidazo[1,2-c]pyrimidin-5-yl]-3-methyl-2-oxa-8-azaspiro[4.5]decan-4-amine] came in with an IC50 of 50 to 500 nM. Still for that read-out and setting: as for `C[C@@H]1OCC2(CCN(c3ncc(-c4ccnc5[nH]ccc45)c4nccn34)CC2)[C@@H]1N` [Compound 59, (3S,4S)-3-methyl-8-(8-{1H-pyrrolo[2,3-b]pyridin-4-yl}imidazo[1,2-c]pyrimidin-5-yl)-2-oxa-8-azaspiro[4.5]decan-4-amine], the figure is above 500 nM; as for `CC1(N)CN(c2ncc(Sc3ccnc(N)c3Cl)c3nccn23)C1` [Compound 26, 4-{[5-(3-amino-3-methylazetidin-1-yl)imidazo[1,2-c]pyrimidin-8-yl]sulfanyl}-3-chloropyridin-2-amine], above 500 nM.
